ChEMBL document CHEMBL1153328, “5-Aminomethylbenzimidazoles as potent ITK antagonists” (Bioorg Med Chem Lett, 2009)

Target: T1, Tyrosine-protein kinase ITK/TSK (Homo sapiens, UniProt Q08881)
T1 sequence (Q08881 whole entry): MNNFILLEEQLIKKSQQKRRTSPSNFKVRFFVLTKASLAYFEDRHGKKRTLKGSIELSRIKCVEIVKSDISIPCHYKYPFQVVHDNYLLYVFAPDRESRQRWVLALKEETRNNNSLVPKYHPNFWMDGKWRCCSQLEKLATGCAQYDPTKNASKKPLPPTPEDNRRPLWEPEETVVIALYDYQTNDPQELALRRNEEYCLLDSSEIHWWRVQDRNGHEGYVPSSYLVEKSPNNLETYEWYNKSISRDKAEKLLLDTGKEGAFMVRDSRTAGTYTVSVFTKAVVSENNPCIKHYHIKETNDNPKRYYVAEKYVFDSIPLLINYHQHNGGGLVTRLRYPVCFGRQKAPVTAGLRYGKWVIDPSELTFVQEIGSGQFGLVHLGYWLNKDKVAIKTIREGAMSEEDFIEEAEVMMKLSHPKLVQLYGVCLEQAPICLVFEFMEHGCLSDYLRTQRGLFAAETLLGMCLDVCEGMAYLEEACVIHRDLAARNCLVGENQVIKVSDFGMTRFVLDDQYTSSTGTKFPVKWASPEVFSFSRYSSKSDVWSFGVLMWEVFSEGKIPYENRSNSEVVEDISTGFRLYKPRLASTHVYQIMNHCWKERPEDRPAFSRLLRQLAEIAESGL
Test: Antagonist activity at human ITK expressed in BTK deficient DT40 cells assessed as inhibition of B cell receptor-stimulated calcium influx
Assay type: functional, cell-based

Row | Compound | IC50 [nM]
1 | CC(C)(O)Cn1/c(=N/C(=O)c2ccc(-c3cn[nH]c3)s2)[nH]c2cc(CN3CCCCC3CO)ccc21 (stereo unspecified) | 58
2 | CC(C)(O)Cn1c(NC(=O)c2ccc(-c3cn[nH]c3)s2)nc2cc(CN)ccc21 | > 5000

More lines, now with the values ahead:

Row | IC50 [nM] | Compound
3 | 130 | CC(C)(O)Cn1/c(=N/C(=O)c2ccc(-c3cn[nH]c3)s2)[nH]c2cc(CN3CCC(O)C3)ccc21 (stereo unspecified)
4 | 2 | C[C@@H](N(C)Cc1ccc2c(c1)nc(NC(=O)c1ccc(-c3cn[nH]c3)s1)n2CC(C)(C)O)C(C)(C)C

Tested on: T-cell
Test: Inhibition of anti-CD3 and anti-CD28 monoclonal antibody-stimulated IL2 secretion in human CD4+ T cells
Assay type: functional, cell-based

Row | Compound | IC50 [nM]
5 | Cc1ncc(-c2ccc(C(=O)/N=c3\[nH]c4cc(CNc5ccccc5)ccc4n3CC(C)(C)O)s2)o1 | 460
6 | CN(C)Cc1ccc2c(c1)[nH]/c(=N\C(=O)c1ccc(-c3cn[nH]c3)s1)n2CC(C)(C)O | 130

The remaining lines, values ahead:

Row | IC50 [nM] | Compound
7 | 86 | CC(C)CNCc1ccc2c(c1)nc(NC(=O)c1ccc(-c3cn[nH]c3)s1)n2CC(C)(C)O
8 | 230 | Cc1ncc(-c2ccc(C(=O)/N=c3\[nH]c4cc(CN(C)C5CCCCC5)ccc4n3CC(C)(C)O)s2)o1
9 | 150 | CN(C)CCN(C)Cc1ccc2c(c1)[nH]/c(=N\C(=O)c1ccc(-c3cn[nH]c3)s1)n2CC(C)(C)O
10 | 91 | CN(Cc1cccnc1)Cc1ccc2c(c1)[nH]/c(=N\C(=O)c1ccc(-c3cn[nH]c3)s1)n2CC(C)(C)O
11 | 37 | CC(C)(O)Cn1/c(=N/C(=O)c2ccc(-c3cn[nH]c3)s2)[nH]c2cc(CNCc3ccccc3)ccc21
12 | 64 | C[C@@H](N(C)Cc1ccc2c(c1)nc(NC(=O)c1ccc(-c3cn[nH]c3)s1)n2CC(C)(C)O)C(C)(C)C

Target: Insulin receptor (Homo sapiens, UniProt P06213)
Sequence (P06213 28-758 limits assumed): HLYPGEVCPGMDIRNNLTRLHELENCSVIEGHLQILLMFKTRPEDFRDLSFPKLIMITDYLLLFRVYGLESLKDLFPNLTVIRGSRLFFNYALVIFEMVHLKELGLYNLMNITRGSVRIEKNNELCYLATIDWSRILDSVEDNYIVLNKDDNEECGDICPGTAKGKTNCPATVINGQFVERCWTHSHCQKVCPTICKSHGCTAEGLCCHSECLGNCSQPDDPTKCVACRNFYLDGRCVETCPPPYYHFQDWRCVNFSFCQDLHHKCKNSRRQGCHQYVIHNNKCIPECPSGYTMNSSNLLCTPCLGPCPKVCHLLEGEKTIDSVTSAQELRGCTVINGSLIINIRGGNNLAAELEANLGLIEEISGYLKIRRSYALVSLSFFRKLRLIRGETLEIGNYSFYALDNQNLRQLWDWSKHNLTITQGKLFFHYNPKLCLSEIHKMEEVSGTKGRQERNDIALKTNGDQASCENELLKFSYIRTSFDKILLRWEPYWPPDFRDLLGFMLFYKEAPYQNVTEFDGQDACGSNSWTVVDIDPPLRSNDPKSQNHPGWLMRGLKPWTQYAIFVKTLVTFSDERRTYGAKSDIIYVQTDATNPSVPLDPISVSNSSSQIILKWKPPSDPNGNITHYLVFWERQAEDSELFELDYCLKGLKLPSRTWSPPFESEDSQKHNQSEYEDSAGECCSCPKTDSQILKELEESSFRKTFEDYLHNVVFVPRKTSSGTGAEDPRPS
Sequence (P06213 763-1382 limits assumed): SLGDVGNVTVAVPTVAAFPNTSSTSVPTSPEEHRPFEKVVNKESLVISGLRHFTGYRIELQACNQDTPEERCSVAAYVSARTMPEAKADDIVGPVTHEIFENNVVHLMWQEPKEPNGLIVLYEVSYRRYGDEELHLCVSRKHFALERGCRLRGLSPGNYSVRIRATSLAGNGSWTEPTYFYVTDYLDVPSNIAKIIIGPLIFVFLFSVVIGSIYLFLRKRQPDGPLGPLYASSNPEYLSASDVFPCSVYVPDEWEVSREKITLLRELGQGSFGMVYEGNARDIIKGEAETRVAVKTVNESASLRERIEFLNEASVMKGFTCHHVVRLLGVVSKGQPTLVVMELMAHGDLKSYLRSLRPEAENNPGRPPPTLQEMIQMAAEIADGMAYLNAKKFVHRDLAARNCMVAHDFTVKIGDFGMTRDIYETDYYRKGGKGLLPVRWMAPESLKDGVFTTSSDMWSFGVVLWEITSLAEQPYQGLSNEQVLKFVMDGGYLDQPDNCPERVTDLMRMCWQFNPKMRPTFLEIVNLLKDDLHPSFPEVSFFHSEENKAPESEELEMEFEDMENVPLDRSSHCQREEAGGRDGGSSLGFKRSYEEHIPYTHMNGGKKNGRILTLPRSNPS
Test: Inhibition of IRK

Row | Compound | IC50 [nM]
13 | CN(Cc1ccc2c(c1)[nH]/c(=N\C(=O)c1ccc(-c3cn[nH]c3)s1)n2CC(C)(C)O)c1ccccc1 | 5500
14 | CNCc1ccc2c(c1)[nH]/c(=N\C(=O)c1ccc(-c3cn[nH]c3)s1)n2CC(C)(C)O | 500
15 | CC(C)(O)Cn1/c(=N/C(=O)c2ccc(-c3cn[nH]c3)s2)[nH]c2cc(CN3CCCCC3CO)ccc21 (stereo unspecified) | 1100
16 | CC(C)(O)Cn1c(NC(=O)c2ccc(-c3cn[nH]c3)s2)nc2cc(CN)ccc21 | 1200

The next lines start with the values.

Row | IC50 [nM] | Compound
17 | 360 | CC(C)CNCc1ccc2c(c1)nc(NC(=O)c1ccc(-c3cn[nH]c3)s1)n2CC(C)(C)O
18 | 350 | Cc1ncc(-c2ccc(C(=O)/N=c3\[nH]c4cc(CN(C)C5CCCCC5)ccc4n3CC(C)(C)O)s2)o1
19 | 390 | CN(C)CCN(C)Cc1ccc2c(c1)[nH]/c(=N\C(=O)c1ccc(-c3cn[nH]c3)s1)n2CC(C)(C)O
20 | 310 | CN(Cc1cccnc1)Cc1ccc2c(c1)[nH]/c(=N\C(=O)c1ccc(-c3cn[nH]c3)s1)n2CC(C)(C)O
21 | 480 | CC(C)(O)Cn1/c(=N/C(=O)c2ccc(-c3cn[nH]c3)s2)[nH]c2cc(CNCc3ccccc3)ccc21
22 | 420 | CC(C)(O)Cn1/c(=N/C(=O)c2ccc(-c3cn[nH]c3)s2)[nH]c2cc(CN3CCC(O)C3)ccc21 (stereo unspecified)
23 | 230 | C[C@@H](N(C)Cc1ccc2c(c1)nc(NC(=O)c1ccc(-c3cn[nH]c3)s1)n2CC(C)(C)O)C(C)(C)C

Target: T1, Tyrosine-protein kinase ITK/TSK
Test: Inhibition of ITK in presence of 1 mM ATP

Row | Compound | IC50 [nM]
24 | CC(C)(O)Cn1/c(=N/C(=O)c2ccc(-c3cn[nH]c3)s2)[nH]c2cc(CN3CCCCC3CO)ccc21 (stereo unspecified) | 660
25 | CC(C)(O)Cn1c(NC(=O)c2ccc(-c3cn[nH]c3)s2)nc2cc(CN)ccc21 | 900

Continued, values first:

Row | IC50 [nM] | Compound
26 | 310 | CC(C)(O)Cn1/c(=N/C(=O)c2ccc(-c3cn[nH]c3)s2)[nH]c2cc(CN3CCC(O)C3)ccc21 (stereo unspecified)
27 | 20 | C[C@@H](N(C)Cc1ccc2c(c1)nc(NC(=O)c1ccc(-c3cn[nH]c3)s1)n2CC(C)(C)O)C(C)(C)C

Target: T1, Tyrosine-protein kinase ITK/TSK
Test: Binding affinity to ITK by DELFIA-based molecular assay

Row | Compound | IC50 [nM]
28 | CC(C)(O)Cn1/c(=N/C(=O)c2ccc(-c3cn[nH]c3)s2)[nH]c2cc(CN3CCCCC3CO)ccc21 (stereo unspecified) | 3
29 | CC(C)(O)Cn1c(NC(=O)c2ccc(-c3cn[nH]c3)s2)nc2cc(CN)ccc21 | 4

Continued, values first:

Row | IC50 [nM] | Compound
30 | 2 | CC(C)(O)Cn1/c(=N/C(=O)c2ccc(-c3cn[nH]c3)s2)[nH]c2cc(CN3CCC(O)C3)ccc21 (stereo unspecified)
31 | 1 | C[C@@H](N(C)Cc1ccc2c(c1)nc(NC(=O)c1ccc(-c3cn[nH]c3)s1)n2CC(C)(C)O)C(C)(C)C
